Data on two compounds can be found in US10669238B2, “Irreversible bruton's tyrosine kinase inhibitor” (HEFEI INSTITUTES OF PHYSICAL SCIENCE, CHINESE ACADEMY OF …, priority 2016, dated 2020).

Assay [1] deals with acute myeloid leukemia cell lines MOLM14. The experiment in a line: Cell proliferation (Cell Titer-Glo), MOLM14. It counts as cell-based. The conditions noted are these: Homo sapiens, MOLM-14; MOLM14, 72 hours; read-out: Effects on cell proliferation (GI50). The procedure:
(§1) The selectivity of Compound 1 in inhibiting the proliferation of cancer cells was further evaluated by testing the effect of Btk inhibitors on the growth of cancer cells. […]
(§2) In this example different concentrations (0.000508 μM, 0.00152 μM, 0.00457 μM, 0.0137 μM, 0.0411 μM, 0.123 μM, 0.370 μM, 1.11 μM, 3.33 μM, 10 μM) of Compound 1 and Compound 6 were respectively added into the above cells which were then cultured for 72 hours. The number of viable cells was determined via quantitative determination of ATP in living cells by using Cell Titer-Glo® (Promega, the USA) Chemical Luminescent Cell Viability Assay kit.
For orientation: ATP-based viability assays read luminescence as a measure of living cells.

Assay [2] has as its target T1, TEL-JAK3-BaF3 cells (stably expressing TEL-JAK3 activated kinase) (Homo sapiens, UniProt P52333).
T1 construct: expressed in transfected cells; host or cells: mouse BaF3 cells, retroviral MSCV-Puro; the other entry of the earlier key: ETV6 (P41212, Transcription factor ETV6)
The experiment in a line: Cell proliferation (Cell Titer-Glo), BaF3-tel-JAK3. The conditions noted are these: BaF3-tel-JAK3 (mouse BaF3 cells), 72 hours; read-out: Effects on cell proliferation (GI50). It counts as cell-based. The procedure: as §1, §2

Assay [3] has as its system leukemia cell OCI-AML-3. The experiment in a line: Cell proliferation (Cell Titer-Glo), OCI-AML-3. It counts as cell-based. The conditions noted are these: Homo sapiens; OCI-AML-3, 72 hours; read-out: Effects on cell proliferation (GI50). On the procedure:
as §1, §2

In assay [4] the test system is diffuse large B-cell lymphoma cell line OCI-LY10. Put plainly: Cell proliferation (Cell Titer-Glo), OCI-LY10. It is filed as cell-based. The conditions noted are these: Homo sapiens; OCI-LY10, 72 hours; read-out: Effects on cell proliferation (GI50). On the procedure:
as §1, §2

Assay [5] has as its system diffuse histiocytic lymphoma cells SU-DHL-2. Put plainly: Cell proliferation (Cell Titer-Glo), SU-DHL-2. It counts as cell-based. Conditions: Homo sapiens; SU-DHL-2, 72 hours; read-out: Effects on cell proliferation (GI50). On the procedure: as §1, §2
For assay [6], the system named is acute myeloid leukemia cell lines U937. Put plainly: Cell proliferation (Cell Titer-Glo), U937. The conditions noted are these: Homo sapiens, U-937; U937, 72 hours; read-out: Effects on cell proliferation (GI50). It counts as cell-based. The procedure: as §1, §2
Assay [7] concerns colon cancer cells HCT116. The experiment in a line: Cell proliferation (Cell Titer-Glo), HCT116. It is filed as cell-based. Conditions: Homo sapiens, HCT-116; HCT116, 72 hours; read-out: Effects on cell proliferation (GI50). The procedure: as §1, §2
The test system of assay [8] is acute myelocytic leukemia cell strains HL-60. Put plainly: Cell proliferation (Cell Titer-Glo), HL60. The conditions noted are these: Homo sapiens, HL60, 72 hours, read-out: Effects on cell proliferation (GI50). It is filed as cell-based. On the procedure:
as §1, §2

The subject of assay [9] is B-lymphoma cell Ramos. Put plainly: Cell proliferation (Cell Titer-Glo), Ramos. The conditions noted are these: Homo sapiens, Romas, 72 hours, read-out: Effects on cell proliferation (GI50). It is filed as cell-based. The procedure:
as §1, §2

Assay [10] has as its system multiple myeloma cell lines RPM18226. Put plainly: Cell proliferation (Cell Titer-Glo), RPMI8226. It is filed as cell-based. The conditions noted are these: Homo sapiens, RPMI-8226; RPMI8226, 72 hours; read-out: Effects on cell proliferation (GI50). The procedure: as §1, §2
The target of assay [11] is T2, TEL-EGFR-BaF3 (stably expressing TEL-EGFR activated kinase) (Homo sapiens, UniProt P00533).
T2 construct: expressed in transfected cells; host or cells: mouse BaF3 cells, retroviral MSCV-Puro; the other entry of the earlier key: ETV6 (P41212, Transcription factor ETV6)
T2 sequence (P00533 712-979 limits assumed): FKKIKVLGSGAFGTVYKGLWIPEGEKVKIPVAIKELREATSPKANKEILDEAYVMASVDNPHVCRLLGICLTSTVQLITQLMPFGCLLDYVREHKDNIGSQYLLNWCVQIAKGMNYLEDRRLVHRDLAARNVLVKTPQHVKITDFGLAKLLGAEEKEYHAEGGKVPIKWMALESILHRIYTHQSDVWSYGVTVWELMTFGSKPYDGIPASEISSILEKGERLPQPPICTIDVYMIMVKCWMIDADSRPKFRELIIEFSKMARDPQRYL
Put plainly: Cell proliferation (Cell Titer-Glo), BaF3-tel-EGFR. It is filed as cell-based. Conditions: BaF3-tel-EGFR (mouse BaF3 cells), 72 hours; read-out: Effects on cell proliferation (GI50). The procedure: as §1, §2

The target in assay [12] is T3, TEL-BMX-BaF3 cells (stably expressing TEL-BMX activated kinase) (Homo sapiens, UniProt P51813).
T3 construct: expressed in transfected cells; host or cells: mouse BaF3 cells, retroviral MSCV-Puro; the other entry of the earlier key: ETV6 (P41212, Transcription factor ETV6)
T3 sequence (P51813 417-675 limits assumed): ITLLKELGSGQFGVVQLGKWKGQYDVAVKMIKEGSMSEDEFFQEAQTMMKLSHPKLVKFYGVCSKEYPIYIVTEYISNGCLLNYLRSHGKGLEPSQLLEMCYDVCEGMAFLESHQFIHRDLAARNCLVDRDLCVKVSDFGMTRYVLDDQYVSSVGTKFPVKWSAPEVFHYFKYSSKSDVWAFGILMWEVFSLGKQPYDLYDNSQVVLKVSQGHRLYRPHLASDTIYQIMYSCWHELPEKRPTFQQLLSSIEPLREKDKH
Put plainly: Cell proliferation (Cell Titer-Glo), BaF3-tel-BMX. It is filed as cell-based. Conditions: BaF3-tel-BMX (mouse BaF3 cells), 72 hours; read-out: Effects on cell proliferation (GI50). The procedure:
as §1, §2

Assay [13] has as its system acute myeloid leukemia cell lines M-07e. Put plainly: Cell proliferation (Cell Titer-Glo), M-07e. It counts as cell-based. Conditions: 72 hours, read-out: Effects on cell proliferation (GI50). The procedure:
as §1, §2

The test system of assay [14] is mouse pro-B cells BaF3. The experiment in a line: Cell proliferation (Cell Titer-Glo), WT-BaF3. Conditions: WT-BaF3, 72 hours, read-out: Effects on cell proliferation (GI50). It is filed as cell-based. On the procedure:
as §1, §2

For assay [15], the target named is T4, BTK C481S (Homo sapiens, UniProt Q06187, C481S).
T4 construct: made in house; host or cells: SF9 insect cells
T4 sequence (Q06187 whole entry C481S): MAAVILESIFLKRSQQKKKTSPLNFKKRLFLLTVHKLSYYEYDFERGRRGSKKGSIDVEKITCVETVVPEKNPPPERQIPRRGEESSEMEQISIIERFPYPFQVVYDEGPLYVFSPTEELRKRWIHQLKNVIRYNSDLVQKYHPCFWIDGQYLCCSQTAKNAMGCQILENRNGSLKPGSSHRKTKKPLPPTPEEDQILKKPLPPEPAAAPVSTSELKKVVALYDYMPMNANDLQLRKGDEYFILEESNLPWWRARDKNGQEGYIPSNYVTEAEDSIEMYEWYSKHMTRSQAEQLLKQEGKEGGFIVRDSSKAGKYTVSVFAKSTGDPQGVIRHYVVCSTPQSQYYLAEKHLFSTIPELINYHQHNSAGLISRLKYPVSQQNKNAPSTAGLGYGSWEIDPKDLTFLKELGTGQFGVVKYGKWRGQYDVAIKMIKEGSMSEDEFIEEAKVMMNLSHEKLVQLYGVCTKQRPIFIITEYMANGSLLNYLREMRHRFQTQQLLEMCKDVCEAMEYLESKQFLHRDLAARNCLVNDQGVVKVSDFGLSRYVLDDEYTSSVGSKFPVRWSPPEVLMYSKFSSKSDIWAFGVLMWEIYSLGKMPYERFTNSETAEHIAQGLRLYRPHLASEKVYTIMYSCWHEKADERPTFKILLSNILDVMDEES
Put plainly: Btk cell-free kinase assay, BTK C481S mutant protein. It counts as biochemical. Conditions: compound 30 mins at room temperature, then 100 μM ATP 20 min at 37° C. From the text:
The BTK wild-type plasmid and the BTK mutant plasmid (C481S) were respectively transfected into SF9 cells (purchased from invitrogen), and after three generations of virus amplification, the P3-generation virus was used to transfect SF9 cells which were collected after 72-hour culture to obtain protein BTK WT and protein BTK C481S, which were then purified.

As usually defined, the EC50 is the midpoint of the concentration-response curve.

T1 sequence (P52333 822-1111 limits assumed): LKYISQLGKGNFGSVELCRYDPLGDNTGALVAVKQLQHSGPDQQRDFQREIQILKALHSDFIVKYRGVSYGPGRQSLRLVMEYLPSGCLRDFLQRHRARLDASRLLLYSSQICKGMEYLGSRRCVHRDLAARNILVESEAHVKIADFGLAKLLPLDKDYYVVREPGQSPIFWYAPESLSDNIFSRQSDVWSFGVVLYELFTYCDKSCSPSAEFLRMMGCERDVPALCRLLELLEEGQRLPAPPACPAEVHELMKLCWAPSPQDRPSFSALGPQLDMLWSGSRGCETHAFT

For the compound `CCC(=O)Nc1cc(Nc2cc(-c3cccc(NC(=O)c4ccc(C(C)(C)C)cc4)c3C)cn(C)c2=O)ccc1C(=O)N1CCOCC1` [Compound 6, N-(3-(5-((3-propanamide-4-(morpholin-4-carbonyl)phenyl)amino)-1-methyl-6-oxo-1,6-dihydropyridin-3-yl)-2-methylphenyl)-4-(tert-butyl)benzamide], the GI50 is more than 10 µM in [1]; 4.6 µM in assay [2]; 9.5 µM in assay [3]; 3 to 10 µM in [4]; more than 10 µM in assay [5]; more than 10 µM in assay [6]. Besides, the GI50 is more than 10 µM in assay [7]; more than 10 µM in assay [8]; 4.6 µM in assay [9]; 4.7 µM in assay [10]; 7.6 µM in assay [11]; 4.1 µM in [12]. Further, the GI50 was more than 10 µM in assay [13] and 6.3 µM in [14]. Moreover, the “inhibitory effects against BTK C481S” value in [15] is recorded as “no inhibitory effects”.
Consider `C=CC(=O)Nc1cc(Nc2cc(-c3cccc(NC(=O)c4ccc(C(C)(C)C)cc4)c3C)cn(C)c2=O)ccc1C(=O)N1CCOCC1` [Compound 1, N-(3-(5-((3-acrylamide-4-(morpholin-4-carbonyl)phenyl)amino)-1-methyl-6-oxo-1,6-dihydropyridin-3-yl)-2-methylphenyl)-4-(tert-butyl)benzamide], for which the GI50 amounted to 6.4 µM in assay [1]; 3.2 µM in assay [2]; 3.8 µM in assay [3]; 3.4 µM in assay [4]; 3 µM in assay [5]; 4.8 µM in assay [6]. For the same compound, the GI50 in [7] was more than 10 µM; in [8], 5.5 µM; in [9], 3.5 µM; in assay [10], 2.9 µM; in [11], 5.3 µM; in assay [12], 0.38 µM. Moreover, the GI50 in [13] came out at 7.3 µM; in [14], 7.9 µM. The EC50 in assay [15] (read-out: EC50 against BTK C481S) stood at 0.185 µM.
